{
  "source": "patent US4442093A",
  "about": "“Method for administering 24,25-dihydroxycholecalciferol to persons suffering from hypercalcemia” (Kureha Kagaku Kogyo Kabushiki Kaisha, priority 1981, dated 1984)",
  "key": {"calcium level in serum [1]": {"test_system": "calcium level in serum", "test": "Serum calcium in rats made hypercalcemic with parathyroid hormone (Example 3)", "format": "in vivo, male Wistar rats", "settings": "50 µg/kg i.p., PTH-treated", "procedure": "To 4 subgroups of male Wistar rats of 150±40 g of body weight (a subgroup consisting of 5 animals), parathyroid hormone (PTH, Sigma Bovine parathyroid TCA powder, 134 USPU/mg) dissolved in a physiological saline solution containing 4% by weight of gelatine was subcutaneously injected at a dose rate of 150 USPU/100 g body weight, the volume injected being 0.4 ml/100 g body weight to prepare the rats artificially suffering from hypercalcemia.\nThe rats of the second group, after one hour of the administration of the parathroid hormone, were intraperitoneally administered only with ethanol, and treated as in the first group for taking the blood specimen."}, "calcium level in serum [2]": {"test_system": "calcium level in serum", "test": "Serum calcium in hemodialysis patient hypercalcemic due to active Vitamin D3 (Example 7)", "format": "in vivo, human", "settings": "person six; baseline", "procedure": "person six who was subjected to hemodialysis on account of renal failure and became hypercalcemia due to the four month administration of active Vitamin D3 at a daily dose of 0.5 to 1.0 microgram was treated by the oral administration of the capsule composition similar to that prepared in Example 6 for three continuous days at a daily dose of 10 micrograms of 24R,25-(OH)2 -D3."}, "calcium level in serum [3]": {"test_system": "calcium level in serum", "test": "Prevention of hypercalcemia in rats administered with 1-α-(OH)-D3 (Example 4)", "format": "in vivo, male Wistar rats", "settings": "100 µg/kg oral together with 1-α-(OH)-D3 10 µg/kg i.p.", "description": "In the present example, it is shown that 24R,25-(OH)2 -D3 has a function of preventing the occurrence of hypercalcemia on rats administered with 1-α-hydroxycholecalciferol (hereinafter referred to as 1-α-(OH)-D3).\nSix subgroups of male Wistar rats of 130±30 g of body weight were subjected to the test while dividing the rats into 3 groups, each group consisting of 2 subgroups and each subgroup consisting of 5 animals. To the rats of the first group, after fasting for a night, an ethanolic solution of 1-α-(OH)-D3 was intraperitoneally administered at a dose rate of 10 micrograms of 1-α-(OH)-D3 /kg body weight. To the rats of the second group, a solution of 24R,25-(OH)2 -D3 in the triglyceride ester used in Example 1 was orally administered at a dose rate of 100 micrograms/kg body weight simultaneously with the same administration of 1-α-(OH)-D3 as in the rats of the first group.\nThe third group of the rats was used for control only with the oral administration of the triglyceride ester used in Example 1."}, "calcium level in serum [4]": {"test_system": "calcium level in serum", "test": "Serum calcium in patient with sarcoidosis accompanied by hypercalcemia (Example 8)", "format": "in vivo, human", "settings": "person two", "procedure": "To patient two diagnosed to be sarcoidosis accompanied by hypercalcemia of the calcium level in their serum of 14.0 mg/dl, the capsule composition similar to that prepared in Example 6 was administered orally at a daily dose of two capsules each containing 5 micrograms of 24R,25-(OH)2 -D3 for continuous 5 days. The calcium level in serum from the blood specimen collected on the sixth day of the commencement of the treatment was 10.8 mg/dl."}, "thymic cells": {"test_system": "thymic cells", "test": "Pattern of the size of thymic cells by FACS (Example 12)", "format": "in vivo, rats", "settings": "100 µg/kg/day oral 12 days with puromycin aminonucleoside", "procedure": "After feeding the rats (the same number and the same grouping) of the same strain and treating them in the same manner as in Example 11, their thymus was resected, and an analysis of the pattern of the size of the thymic cells was carried out while using Fluorescence Activated Cell Sorter (FACS II, made by Becton-Dickinson Co.) as follows:\nAfter loosing the resected thymus in phosphate buffer solution sufficiently with a pincette, pipetting well and passing the mixture through a standard #200 Tyler stainless steel mesh, the filtrate was treated with an aqueous 0.83% by weight ammonium chloride buffer solution containing tris-hydroxyaminomethane to carry out hemolysis of the erythrocytes intermingled therein followed by three times of washing with the phosphate buffer solution. After adjusting the concentration of the thus obtained thymic cell to 5×10^6 cells/ml with the addition of the phosphate buffer solution, the abovementioned analysis was carried out. The ratio of the number of living thymic cells to the total number of the thus obtained thymic cells was confirmed to be higher than 95% after staining with trypan blue and counting under microscope."}, "calcium level in serum [5]": {"test_system": "calcium level in serum", "test": "Serum calcium in rats made hypercalcemic with Vitamin D3 (Example 1)", "format": "in vivo, male Wistar rats", "settings": "for Calcium level in serum: 24R 100 µg/kg oral, calcitonin 4 MRCU/kg s.c.", "procedure": "To 16 subgroups of male Wistar rats of body weight of 150±40 g (one subgroup consisting of 5 rats), a solution of Vitamin D3 dissolved in corn oil at 600 micrograms/ml was orally administered once a day for continuous 4 days at a daily dose rate of 0.5 ml/100 g body weight to prepare the rats artifically suffering from hypercalcemia. After one day's fasting from the final administration of Vitamin D3, the calcium level in the serum of each rat of the first subgroup was on the average 13.5±0.4 mg/dl. The remaining 15 subgroups of the rats were divided into 3 groups each consisting of 5 subgroups and subjected to the following tests.\nTo the rats of the second group, a solution of porcine calcitonin in a physiological saline solution containing 4% by weight of gelatin was subcutaneously injected at a dose rate of 4 MRCU/kg body weight instead of the solution of 24R,25-(OH)2 -D3 and they were treated as those of the first group.\nTo the rats of the third group, only the same triglyceride ester as in the first group was orally administered, and they are treated in the same manner as in the first group.\nThe calcium level of the respective sera of the thus collected blood was determined by OCPC method (Orthocresol Phthalein Complexone method) and shown in Table 1."}, "calcium level in serum [6]": {"test_system": "calcium level in serum", "test": "Serum calcium in rats transplanted with Walker-carcinosarcoma 256 (Example 5)", "format": "in vivo, Sprague-Dawley rat", "procedure": "After injecting 0.5 ml of ascites of Walker-carcinosarcoma 256 adjusted to contain 2×10^6 tumour cells per microliter into the upper part of the right thigh of a Sprague-Dawley rat of body weight of 90-140 g, a solution of 24R,25-(OH)2 -D3 in the triglyceride ester used in Example 1 at a concentration of 0.5 microgram/100 microliter was orally administered once a day for continuous 7 days at a daily dose rate of 20 micrograms of 24R,25-(OH)2 -D3 per kg body weight of the rat. […] The blood specimen was also collected in the same manner from a rat of the same strain injected with the ascites in the same manner as in the first rat, however, only administered with the triglyceride ester. The two levels of calcium in the respective sera of the two groups were compared in Table 5."}},
  "data": [
    {"smiles": "C=C1CC[C@H](O)C/C1=C/C=C1\\CCC[C@]2(C)[C@@H]([C@H](C)CC[C@@H](O)C(C)(C)O)CC[C@@H]12", "note": "[24R,25-(OH)2 -D3]", "values": [
      {"measurement": "Calcium level in serum", "setting": "calcium level in serum [1]; after 2 hours", "value": "12.5 ± 0.5", "unit": "mg/dL"},
      {"measurement": "Calcium level in serum", "setting": "calcium level in serum [1]; after 5 hours", "value": "10.5 ± 0.5", "unit": "mg/dL"},
      {"measurement": "calcium level in serum before the administration", "setting": "calcium level in serum [2]", "value": 12.8, "unit": "mg/dL"},
      {"measurement": "Calcium level in serum", "setting": "calcium level in serum [3]; after 10 hours", "value": "11.5 ± 0.5", "unit": "mg/dL"},
      {"measurement": "Calcium level in serum", "setting": "calcium level in serum [3]; after 18 hours", "value": "10.6 ± 0.4", "unit": "mg/dL"},
      {"measurement": "calcium level in serum before treatment", "setting": "calcium level in serum [4]; baseline", "value": 14.0, "unit": "mg/dL"},
      {"measurement": "calcium level in serum on the sixth day", "setting": "calcium level in serum [4]; two 5 µg capsules/day oral, 5 days", "value": 10.8, "unit": "mg/dL"},
      {"measurement": "number ratio of cells a little larger than normal cell to total thymic cells", "setting": "thymic cells", "value": "the same as that of the control group"},
      {"measurement": "period for which the reduced calcium level was maintained", "setting": "calcium level in serum [5]; 100 µg/kg oral", "value": 12, "unit": "h"},
      {"measurement": "Calcium level in serum", "setting": "calcium level in serum [5]; 2 h after administration", "value": "12.5 ± 0.4", "unit": "mg/dL"},
      {"measurement": "Calcium level in serum", "setting": "calcium level in serum [5]; 5 h after administration", "value": "11.0 ± 0.5", "unit": "mg/dL"},
      {"measurement": "Calcium level in serum", "setting": "calcium level in serum [5]; 8 h after administration", "value": "10.5 ± 0.5", "unit": "mg/dL"},
      {"measurement": "Calcium level in serum", "setting": "calcium level in serum [5]; 12 h after administration", "value": "10.5 ± 0.4", "unit": "mg/dL"},
      {"measurement": "Calcium level in serum", "setting": "calcium level in serum [5]; 24 h after administration", "value": "10.8 ± 0.3", "unit": "mg/dL"},
      {"measurement": "Calcium level in serum after one week of transplantation", "setting": "calcium level in serum [6]; 20 µg/kg/day oral, 7 days", "value": "11.2 ± 0.6", "unit": "mg/dL"},
      {"measurement": "Calcium level in serum before transplantation", "setting": "calcium level in serum [6]; before transplantation (baseline)", "value": "10.5 ± 0.3", "unit": "mg/dL"}
    ]}
  ]
}
